Results as given in patent US20260216099A1, “BROMOQUINONE AS A TREATMENT FOR OBESITY AND CANCER” (priority 2023, published 2026).
“Also recorded” adds a separate entry of the source.

Legend:
[1] = system: commercially available cell lines; experiment: Cell growth of commercially available cell lines (halogen-Q0C10); format: cell-based; conditions: many commercially available cell lines
[2] = system: rM-1, ARPE-19 and Hep G2 cell lines; experiment: Cell counting assay, statements for the three cell lines together; format: cell-based, Rat; Human; conditions: for effect on cell growth: same conditions as bromoquinone (up to 10 μM, 48 hours)
Method: (§1) Cell Counting Assay: For the cell counting assay, rMc-1, ARPE-19, and HepG2 cells were cultured in DMEM with 4.5 g/L glucose supplemented with 10% fetal bovine serum (FBS), penicillin, and streptomycin. These cells were seeded at 50% confluency before bromoquinone treatment. About 5,000 cells were seeded in a 24-well plate and treated with various amounts of bromoquinone and incubated at 37° C. under 5% CO2. Cell growth was examined by cell counting stained with Trypan Blue. The Raw264.7 and L929 cells were cultured in DMEM supplemented with 10% (vol/vol) heat-inactivated FBS (SH30910.03; Hyclone) at 37° C. and 5% CO2. THP-1 cells were cultured in RPMI-1640 medium supplemented with 10% (v/v) heat-inactivated FBS at 37° C. and 5% CO2.
(§2) When the cell lines (rM-1, ARPE-19 and Hep G2) were cultured for 48 hours in their corresponding media in the presence of various concentrations (0, 0.5, 2.5. 5, and 10 μM) of bromoquinone, the cell survival rate decreased as the concentration of bromoquinone increased. When the concentration of bromoquinone was 10 μM, the cell survival rate decreased by 70-80%, while under the same conditions, no effect on cell growth was observed if normal coenzyme Q or Q0C10 was used.

ARPE19 cells = experiment: Cell counting assay (Trypan Blue), cell growth; format: cell-based, Human; conditions: 48 hours
Method: as §1, §2

Hep G2 cells = experiment: Cell counting assay (Trypan Blue), cell growth; format: cell-based, Human; conditions: for Effect of Bromoquinone on the Growth (cell survival, % of 0 μM): Hep G2 cells, 48 hours
Method: as §1, §2

Redox potential = format: physicochemical; conditions: difference to Coenzyme Q10
rMC-1 cells = experiment: Cell counting assay (Trypan Blue), cell growth; format: cell-based, Rat; conditions: 48 hours
Method: as §1, §2

INS-1 cell line = experiment: Cell growth inhibition (FIG. 4); format: cell-based, Rat; conditions: INS-1, highest concentration tested
Method: (§3) FIGS. 4A, 4B, and 4C illustrate the effect of bromoquinone on cell growth of HEK293, HeLa, INS-1, and ADSC cells. […] Cells were stained with bisbenzimide.
(§4) Cell Attachment Assay: For the cell attachment assay, Raw264.7 and L929 cells were pre-seeded (100,000 cells/well) in 12-well plates (overnight incubation) at 37° C. and 5% CO2. Bromoquinone was added 24 hours after pre-seeding, and cell attachment was determined by counting attached cells at 72 hours post-treatment. THP-1 cells were pre-seeded (100,000 cells/well) in the presence of 320 nM phorbol-12-myristate-13-acetate (PMA) in 12-well plates (overnight incubation) at 37° C. and 5% CO2. Bromoquinone was added 24 hours after pre-seeding, and cell attachment was determined by counting attached cells at 72 hours post-treatment. Raw264.7, L929, and THP-1 cells were cultured in 12-well plates (100,000 cells/well) in the presence of bromoquinone for 72 hours at 37° C. and 5% CO2. The live cell number was determined by Trypan Blue staining. HEK293 and HeLa cells were cultured in DMEM supplemented with 10% (v/v) fetal bovine serum and 1% (v/v) penicillin-streptomycin. INS-1 cells were cultured in RPMI 1640 media supplemented with 10% (v/v) FBS and 1% (v/v) penicillin-streptomycin. All the cells were incubated at 37° C. and 5% CO2 atmosphere in 10-cm plates. […]

ADSC cells = experiment: Cell growth by cell counting, Trypan Blue and hemocytometer (FIG. 4A); format: cell-based, Human
Method: as §3
(§5) Cell Attachment Assay: For the cell attachment assay, Raw264.7 and L929 cells were pre-seeded (100,000 cells/well) in 12-well plates (overnight incubation) at 37° C. and 5% CO2. Bromoquinone was added 24 hours after pre-seeding, and cell attachment was determined by counting attached cells at 72 hours post-treatment. THP-1 cells were pre-seeded (100,000 cells/well) in the presence of 320 nM phorbol-12-myristate-13-acetate (PMA) in 12-well plates (overnight incubation) at 37° C. and 5% CO2. Bromoquinone was added 24 hours after pre-seeding, and cell attachment was determined by counting attached cells at 72 hours post-treatment. Raw264.7, L929, and THP-1 cells were cultured in 12-well plates (100,000 cells/well) in the presence of bromoquinone for 72 hours at 37° C. and 5% CO2. The live cell number was determined by Trypan Blue staining. HEK293 and HeLa cells were cultured in DMEM supplemented with 10% (v/v) fetal bovine serum and 1% (v/v) penicillin-streptomycin. INS-1 cells were cultured in RPMI 1640 media supplemented with 10% (v/v) FBS and 1% (v/v) penicillin-streptomycin. All the cells were incubated at 37° C. and 5% CO2 atmosphere in 10-cm plates. When the cells reached about-80% confluency, they were harvested and cultured on 96-well plates with 5×10^3 cells seeded per well. For each cell line, three 96-well plates were prepared—one for MTT assay and two for bisbenzimide-based nuclear fluorescent stain assay. After 24-hour incubation, the culture medium was replaced by the same medium containing various concentrations (0, 4, 8, 16, 32, and 64 μM) of bromoquinone. Three replicates were made for each condition. The plates then continued to be incubated for another 24 hours (two plates) or 48 hours (one plate). One plate with 24-hour treatment was used for the MTT cell viability assay. The other 24-hour treatment plate and the 48-hour treatment plate were used for the Bisbenzimide-based nuclear fluorescent stain cell imaging.
(§6) As described above, cell lines were cultured in their corresponding media in the presence of various concentrations of bromoquinone (0, 2, 4, 8, 16, 32, and 64 μM) for 48 and 72 hours. […] Similar results were obtained using the MTT assay (FIG. 4B). As expected, when the incubation was prolonged to 72 hours, more inhibition was observed.

HeLa cells = experiment: as above; format: cell-based, Human
Method: as §3, §5, §6

HEK-293 cells = experiment: as above; format: cell-based, Human
Method: as §3, §5, §6

[3] = system: L-929, Raw 264-7 and THP-1 cells; experiment: Cell attachment assay (FIG. 3B); format: cell-based, Mouse; Human; conditions: 72 hours post-treatment
Method: as §4, with “plates. When the cells reached about-80% confluency, they were harvested and cultured on 96-well plates with 5×10^3 cells seeded per well.” for “plates.”

[4] = system: isolated beef liver mitochondria; experiment: Energy coupling (oxidative phosphorylation) in isolated mitochondria treated with bromoquinone; format: biochemical; conditions: NADH linked substrate; 2 instead of 3
Method: Introducing an electron-withdrawing group such as bromine should have an effect on the redox potential and UV spectrum, and this is indeed the case. Bromoquinone has a higher redox potential than that of Coenzyme Q10, by about 30 mV and UV spectral shift by 24 nm. A decrease of approximately 30% of energy conservation efficiency has been observed in isolated mitochondria that were treated with bromoquinone. This decrease may be due to the loss of energy conservation site II at Complex III in the bromoquinone-treated mitochondria (2).
When the rats were given 0.3 mL of a high fat mixture daily in addition to normal diet, a significant increase in weight gain was observed. […] Using NADH linked substrate 6-Br-Q0C10 treated mitochondria has a P/O ratio of 2 instead of 3. 6-Br-Q0C10 causes a by-passing of oxidative phosphorylation site 2 because of its high redox-potential.

[5] = system: L-929, Raw 264-7 and THP-1 cells; experiment: Cell growth, live cell number by Trypan Blue (FIG. 3A); format: cell-based, Mouse; Human
Method: as §1
Cell Attachment Assay: For the cell attachment assay, Raw264.7 and L929 cells were pre-seeded (100,000 cells/well) in 12-well plates (overnight incubation) at 37° C. and 5% CO2. Bromoquinone was added 24 hours after pre-seeding, and cell attachment was determined by counting attached cells at 72 hours post-treatment. […] Bromoquinone was added 24 hours after pre-seeding, and cell attachment was determined by counting attached cells at 72 hours post-treatment. […] The live cell number was determined by Trypan Blue staining. […]

[6] = Rat growth study: body weight gain, toxicity, food and water consumption; format: in vivo
Method: 6-Br-Q0C10: Crude 6-Br-Q0C10 was available in the laboratory. It was further purified to homogeneity using thin layer chromatography. The purity of 6-Br-Q0C10 was confirmed by its absorption peak at 303 nm and the concentration was determined spectrophotometrically, using a millimolar extinction coefficient of 20 cm^−1 (13), Carboyxmethyl cellulose was obtained from Amazon. Olive oil and unsalted butter were obtained from the local supermarket. 9 Male F344 (born on Sep. 28, 2023) were purchased from Evigo RMS, Inc, 8520 Allison Pointe Blvd, Suite 4000, Indianapolis, Indiana 46250 on Oct. 17, 2023.
The rats were divided into three groups, three rats in each group. We followed their growth by body weight gained daily until Nov. 5, 2023, and then one group of rats received the 6-Br-Q0C10 treatment, and the second group received only the carrier media used to dissolve the 6-Br-Q0C10, and the third group was used as control without any treatment. All rats had free access to rat chow and water.
Various concentrations of 6-Br-Q0C10 were dissolved in 1% and 1.5% CMC, 40% ethanol, and a mixture of oil and unsalted butter (67:33). 6-Br-Q0C10 solutions and carriers were given to the rats by IG in a volume of 0.3 mL daily. The body weights of the rats were measured and recorded individually and as a group. JACUC Protocol No: SC2101

Structure (SMILES): CCCCCCCCCCC1=C(Cl)C(=O)C(OC)=C(OC)C1=O [6-Cl-Q0C10, 6-Chloro-2,3-dimethoxy-5-decyl-1,4-benzoquinone]
- reducing cell growth [1]: effective in reducing cell growth

Structure (SMILES): CCCCCCCCCCC1=C(C)C(=O)C(OC)=C(OC)C1=O [Q0C10, 2,3-dimethoxy-5-decyl-6-methyl-1,4-benzoquinone]
- effect on cell growth [2]: no effect

Structure (SMILES): CCCCCCCCCCC1=C(Br)C(=O)C(OC)=C(OC)C1=O [6-Br-Q0C10, 6-Bromo-2,3-dimethoxy-5-decyl-1,4-benzoquinone]
- Effect of Bromoquinone on the Growth (cell survival, % of 0 μM) (ARPE19 cells; 0.5 μM bromoquinone): 85.4%
- Effect of Bromoquinone on the Growth (cell survival, % of 0 μM) (ARPE19 cells; 1 μM bromoquinone): 80.9%
- Effect of Bromoquinone on the Growth (cell survival, % of 0 μM) (ARPE19 cells; 2.5 μM bromoquinone): 60.0%
- Effect of Bromoquinone on the Growth (cell survival, % of 0 μM) (ARPE19 cells; 5 μM bromoquinone): 41.9%
- Effect of Bromoquinone on the Growth (cell survival, % of 0 μM) (ARPE19 cells; 10 μM bromoquinone): 26.6%
- Effect of Bromoquinone on the Growth (cell survival, % of 0 μM) (Hep G2 cells; 0.5 μM bromoquinone): 103.1%
- Effect of Bromoquinone on the Growth (cell survival, % of 0 μM) (Hep G2 cells; 1 μM bromoquinone): 107.8%
- Effect of Bromoquinone on the Growth (cell survival, % of 0 μM) (Hep G2 cells; 2.5 μM bromoquinone): 104.2%
- Effect of Bromoquinone on the Growth (cell survival, % of 0 μM) (Hep G2 cells; 5 μM bromoquinone): 98.1%
- Effect of Bromoquinone on the Growth (cell survival, % of 0 μM) (Hep G2 cells; 10 μM bromoquinone): 93.3%
- effect on Hep-G2 (cell growth) (Hep G2 cells; even at 10 μM): very small
- redox potential higher than that of Coenzyme Q10 (Redox potential): about 30 mV
- decrease of cell survival rate ([2]; 10 μM, 48 hours): 70-80%
- Effect of Bromoquinone on the Growth (cell survival, % of 0 μM) (rMC-1 cells; 0.5 μM bromoquinone): 88.2%
- Effect of Bromoquinone on the Growth (cell survival, % of 0 μM) (rMC-1 cells; 1 μM bromoquinone): 80.1%
- Effect of Bromoquinone on the Growth (cell survival, % of 0 μM) (rMC-1 cells; 2.5 μM bromoquinone): 68.1%
- Effect of Bromoquinone on the Growth (cell survival, % of 0 μM) (rMC-1 cells; 5 μM bromoquinone): 36.2%
- Effect of Bromoquinone on the Growth (cell survival, % of 0 μM) (rMC-1 cells; 10 μM bromoquinone): 27.9%
- inhibition (cell growth) (INS-1 cell line): less than 20%
- inhibition (cell growth, cell counting) (ADSC cells; 48 hours of treatment, FIG. 4A): 82%
- inhibition (cell growth) (ADSC cells; 72 hours): 90%
- inhibition (cell growth, cell counting) (HeLa cells; 48 hours of treatment, FIG. 4A): 66%
- inhibition (cell growth) (HeLa cells; 72 hours): 97%
- inhibition (cell growth, cell counting) (HEK-293 cells; HEK-293, 48 hours of treatment, FIG. 4A): 69%
- inhibition (cell growth) (HEK-293 cells; HEK-293, 72 hours): 95%
- inhibition at 50 µM [3]: 70%
- P/O ratio [4]: 2
- inhibition at 50 µM [5]: ≤ 50%
- food and water consumption ([6]; 6-Br-Q0C10 treated rats): slight increase
- reduction in body weight gain ([6]; rats, 0.5 mg/IG in 0.3 mL oil/butter (67%/33%) daily, compared to carrier mixture only): 30-40%
- toxicity effect on rats ([6]; rats, even at the highest concentrations used): no toxicity effect
- effect on growth (body weight gain) ([6]; rats, low concentrations, growth period): little effect; also recorded: slight
- toxicity ([6]; rats, lower concentrations): no toxicity

Structure (SMILES): COC1=C(OC)C(=O)C(CC=C(C)CCC=C(C)CCC=C(C)CCC=C(C)CCC=C(C)CCC=C(C)CCC=C(C)CCC=C(C)CCC=C(C)CCC=C(C)C)=C(C)C1=O [coenzyme Q10, 2,3-dimethoxy-5-(isoprenyl)10-6-methyl-1,4-benzoquinone]
- effect on cell growth [2]: no effect
